From patent US20190038641A1, “COMBINATION THERAPY FOR CASTRATION-RESISTANT PROSTRATE CANCER” (The Board of Regents of the University of Texas System, priority 2016, published 2019)

Experiments:
Type in all cases: cell-based, human
[1] = tested on: SULT2B1; test: QRT-PCR assay of SULT2B1 mRNAs in C4-2B cells; conditions: EB1089 10 nM, R1881 1 nM, FIG. 3B
Excerpt: (§1) Dampened vitamin D/VDR-induced CYP24A1 mRNA expression in the presence of androgen is beneficial, as it would prevent ligand degradation, thereby enhancing VDR signaling.

[2] = tested on: CYP24A1; test: Regulation of CYP24A1 mRNA expression in C4-2B castration-resistant cells (QRT-PCR)
Excerpt: FIG. 2. Regulation of CYP24A1 in C4-2B castration resistant cell lines.
CYP24A1 induction by calcitriol has been reported by many laboratories. However, complete suppression of this induction by androgen has not been reported in the literature.
as §1

[3] = tested on: HSD3β-1; test: Regulation of HSD3β-1 expression (quantitative RT-PCR, Western blot) in castration-resistant prostate cancer cell lines; conditions: C4-2B and C4-2 castration-resistant prostate cancer cell lines; FIG. 1
Excerpt: FIG. 1. Regulation of HSD3β-1 in C4-2B castration-resistant cell lines.

Row | SMILES | induction of SULT2B1 mRNAs [1] | CYP24A1 mRNA expression (induction) ([2]; C4-2B cells, EB1089 10 nM, R1881 1 nM, FIG. 3A) | induction of CYP24A1 ([2]; C4-2B castration-resistant cells, calcitriol with or without androgen, FIG. 2) | expression of HSD3β-1 (messenger RNA and protein levels) [3]
1 | C=C1/C(=C\C=C2/CCC[C@]3(C)[C@@H]([C@H](C)/C=C/C=C/C(O)(CC)CC)CC[C@@H]23)C[C@@H](O)C[C@@H]1O [EB1089] | induction | ~2000 fold | – | –
2 | C=C1/C(=C\C=C2/CCC[C@]3(C)[C@@H]([C@H](C)CCCC(C)(C)O)CC[C@@H]23)C[C@@H](O)C[C@@H]1O [calcitriol, 1,25-dihydroxycholecalciferol] | – | – | three orders of magnitude and more | strongly induced
